What was measured:
UN-KC-6141 cells = assay: MTT cell viability assay, UN-KC-6141; assay type: cell-based, mouse; conditions: API 40 μM, 24 h, vs DMSO vehicle
Protocol: The methyl thiazol tetrazolium (MTT) assay was performed as described previously^58. Briefly, MiaPaCa-2, Panc02 and UN-KC-6141 cells were seeded in 96-well plates at a density of 3000 cells/well and allowed to attach overnight. PC cells were then treated with API (40 μM) or DMSO (1%) as vehicle control for 24 h at 37° C. in 5% CO2 incubator. After 24 h, media was replaced with 20 μL of MTT (1 mg/mL) (Sigma-Aldrich) and incubated for 3 h at 37° C. in 5% CO2. MTT was replaced with DMSO, and absorbance was read at 570 nm.
MiaPaCa-2, Panc02 and UN-KC-6141 cells (2×10^5) were grown in 2 mL of growth medium in a 6-well tissue culture plate for 18-24 h until 60-80% confluency. The following solutions were prepared: Solution A) For each transfection, diluted 1 μL of miRNA-155 inhibitors (1 μM) (Table 2) or scrambled negative control miRNA (1 μM) (Qiagen, Germantown, MD, USA) into 50 μL Opti-MEM Transfection Medium (Invitrogen, Waltham, MA, USA). Solution B) For each transfection, diluted 3 μL of Hi-Perfect Transfection Reagent into 50 μL Opti-MEM Transfection Medium. Solution A was added directly to Solution B, mixed gently and the mixture incubated for 10-15 min at room temperature. […]

SHIP-1 = conditions: API-treated OPC mice, previous findings (ref 12); cited from earlier work
Panc02 cells = assay: Apoptosis by flow cytometry (Annexin V and PI), Panc02; assay type: cell-based, mouse; conditions: API 10, 20, 30, 40, 50 μM, 24 h
Protocol: Panc02 and UN-KC-6141 cells were seeded in 6-well plates allowed to grow to 50-60% confluency. Cells were then treated with API at a dose-dependent concentration (10, 20, 30, 40, 50 μM) or DMSO (1%) as vehicle control and incubated for 24 h at 37° C. in a humidified atmosphere of 5% CO2. Cells were collected and stained with a FITC Annexin V Apoptosis Detection Kit I (BD Bioscience, San Jose, CA, USA) according to the manufacturer's instructions. Acquisition of samples was performed using a flow cytometer BD LSRII (BD Biosciences Immunocytometry Systems, San Jose, CA, USA). FlowJo v10.8 software (TreeStar Inc., Ashland, OR, USA) was used for data analysis.

iNOS = assay: Western blot of iNOS protein in tumors of KC-HPC mice; assay type: in vivo, mouse; conditions: KC-HPC-API vs KC-HPC mice
Protocol: The inventors then assessed the expression of CD40 (a T cell co-stimulation marker) on M1 TAM (gated as MHC-II^+ and CD206) within the tumor from KC-HPC vs. KC-HPC-API mice. […] Single-cell suspensions of BM, digested pancreatic tumors cells and UN-KC-6141 cells treated with API (40 μM) were lysed with radioimmunoprecipitation buffer (Sigma-Aldrich), quantified with a BCA Protein Assay kit (Thermo Fisher Scientific, Waltham, MA, USA), resolved by SDS-PAGE (Thermo Fisher Scientific) and transferred onto a nitrocellulose membrane as previously described. Membranes were probed with either anti-SHIP-1 (Santa Cruz Biotechnology, Dallas, TX, USA), anti-iNOS (Cell Signaling Technology) or anti-Bcl-2 (Cell Signaling Technology, Danvers, MA, USA), all at a dilution of 1:1000. All blots were re-probed with a housekeeping protein, HRP-conjugated anti-β-actin (Sigma-Aldrich), at a dilution of 1:20,000. Membranes were then probed with the respective secondary anti-mouse or rabbit IgG HRP-conjugated antibodies (1:1000) of SHIP-1 and iNOS. Detection of SHIP-1, iNOS and β-actin proteins was performed using Super Signal West Pico or Femto Chemiluminescent Substrates (Thermo Fisher Scientific) and then imaged on a Bio-Rad Chemi Doc XRS Imaging System. Normalized densitometric ratios (divided by β-actin) were determined by quantifying WB results using Image J.

For `O=c1cc(-c2ccc(O)cc2)oc2cc(O)cc(O)c12` [API, 40,5,7-Trihydroxyflavone, 5,7-Dihydroxy-2-(4-hydroxyphenyl)-4-benzopyrone], the “cell viability (MTT)” value (UN-KC-6141 cells) is given as “significantly inhibited”, the “SHIP-1 gene expression in pancreatic tumor” value (SHIP-1) is given as “increased” and the “SHIP-1 protein expression in pancreatic tumor” value (SHIP-1) is given as “increased”. For the same molecule, the “apoptosis (Annexin V and PI)” value (Panc02 cells) was “induces apoptosis” and the “iNOS protein expression in tumor” value (iNOS) was “significant increase”.
